Legend:
human Hsp90 = assay: Fluorescence polarization (FP) displacement assay, GA-FITC, Hsp90; assay type: binding; details: FP displacement of GA-FITC, 50 nM Hsp90; for Ki: read-out: Biochemical efficacy HSP90 Ki
Method: (§1) Prior to transforming into BL21 (DE3) all the cloned vectors were sequence confirmed. Expressed proteins were purified using NTA resin (Life Technologies) followed by size exclusion chromatography using FPLC. The molecular mass of the purified proteins was confirmed by MALDI-TOF and assessed for purity by SDS-PAGE.
(§2) The assay conditions were 20 mM HEPES, pH-7.5, 50 mM KCl, 5 mM MgCl2, 20 mM sodium molybdate, 2 mM DTT, 0.01% NP40, 100 ug/ml BSA, 50 nM Hsp90 or 200 nM TRAP1, 1% DMSO, and 8 nM (for Hsp90) or 20 nM (for TRAP1) GA-FITC in the presence of increasing concentrations of test compound.

TRAP1 = target: T1, TRAP1 (Homo sapiens, UniProt Q12931); assay: Fluorescence polarization (FP) displacement assay, GA-FITC, TRAP1; assay type: binding; details: FP displacement of GA-FITC, 200 nM TRAP1; for Ki: NA: Not active, read-out: Biochemical efficacy TRAP1 Ki
T1 construct: Recombinant full-length human Hsp90 and 459 TRAP1 were cloned; 6His (TEV-cleavable) (N); made in house; host or cells: E. coli BL21 (DE3)
T1 sequence (Q12931 60-704): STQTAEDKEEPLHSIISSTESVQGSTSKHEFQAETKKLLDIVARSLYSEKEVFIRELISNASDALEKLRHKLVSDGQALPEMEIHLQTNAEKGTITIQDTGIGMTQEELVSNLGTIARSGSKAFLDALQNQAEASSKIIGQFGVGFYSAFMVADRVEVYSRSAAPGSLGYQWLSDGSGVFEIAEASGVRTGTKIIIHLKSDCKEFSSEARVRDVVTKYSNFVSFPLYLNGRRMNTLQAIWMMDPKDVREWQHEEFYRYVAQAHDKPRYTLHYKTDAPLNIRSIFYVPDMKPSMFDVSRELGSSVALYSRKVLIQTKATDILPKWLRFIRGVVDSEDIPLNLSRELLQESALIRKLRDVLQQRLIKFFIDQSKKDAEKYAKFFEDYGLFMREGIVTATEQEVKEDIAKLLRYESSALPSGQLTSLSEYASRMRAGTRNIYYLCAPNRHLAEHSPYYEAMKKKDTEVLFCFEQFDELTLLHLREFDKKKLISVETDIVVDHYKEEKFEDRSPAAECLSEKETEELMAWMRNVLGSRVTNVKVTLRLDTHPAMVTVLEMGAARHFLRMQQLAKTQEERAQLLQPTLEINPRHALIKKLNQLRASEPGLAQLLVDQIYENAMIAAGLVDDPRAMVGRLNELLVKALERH
Method: as §1, §2

U251MG cells [1] = assay: Cell viability assay, cellular dehydrogenase activity (CCK-8); assay type: cell-based; details: Homo sapiens, U-251; 72 h at 37° C.; FIG. 1A
Method: U251MG cells were maintained at 37° C. and 5% CO2 in RPMI media supplemented with glutamax and containing 10% heat-inactivated fetal bovine serum and 1% penicillin/streptomycin (Life Sciences).
A cell counting kit (CCK-8 assay kit, Dojindo) and an ADP-Glo assay (Life Technologies) were used to quantitate the effects of test compounds on cell viability. U251MG cells were seeded into 96 well tissue culture plates and incubated for 16 h at 37° C. with 5% CO2. Increasing concentrations of test compounds were added to the wells from DMSO-containing stock solutions to a final DMSO concentration of 0.05% and incubated for 72 hr at 37° C. CCK-8 kit reagent or ADP-GLO reagent were then added to the wells and absorbance was measured at 450 nm (for the CCK assay) using a Synergy HT micro-titer plate reader (Biotek) or luminescence was measured (for the ADP-GLO assay) using a POLARstar Omega micro-titer plate reader (BMG).

U251MG cells [2] = assay: TMRE assay, cell-based (mitochondrial membrane potential); details: for Decrease of specific TMRE fluorescence vs untreated: U251MG cells, 48 h
Method: […] TMRE (200 nM) was then added to wells for 30 min and monitored for changes in fluorescence activity either by fluorescence microscopy using an inverted Zeiss LSM 710 confocal microscope or by spectrophotometry using a fluorescence plate reader (544ex/590em) after washing the cells. Specific TMRE fluorescence was calculated by comparison to matched wells pretreated with 20 uM FCCP for 10 min prior to addition of TMRE. For mitochondria assays, untreated U251MG cells grown to confluence in T75 culture flasks. Mitochondria from these cells were isolated using a mitochondria isolation kit (Thermo Scientific) and loaded with 0.1 mM TMRE in kit buffer at 37° C. for 20 min. After washing, the TMRE-loaded mitochondria (2 ug per well) were incubated in a 96 well black plate with test compounds and monitored kinetically at 30° C. for changes in fluorescence using a fluorescence plate reader (ex 544/em 590). The fluorescence intensity after treatment with 20 um FCCP in control wells corresponded to a fully depolarized state.
Mitochondrial integrity was evaluated using Tetramethylrhodamine ethyl ester (TMRE) assay. A TMRE assay kit (Abcam) was used to evaluate Hsp90/TRAP1 inhibitor-induced changes in mitochondrial membrane potential. […] TMRE (200 nM) was then added to wells for 30 min and monitored for changes in fluorescence activity using a fluorescence plate reader (ex544/em 590) after washing the cells. Specific TMRE fluorescence was calculated by comparison to matched wells pretreated with the depolarizing proton ionophore carbonyl cyanide 4-(trifluoromethoxy)phenylhydrazone (FCCP) at 20 uM 10 min prior to addition of TMRE. For mitochondria assays, mitochondria was isolated using a kit from Thermoscientific and loaded with 0.1 mM TMRE. TMRE-loaded mitochondria (2 μg per well) were incubated with test compounds and monitored kinetically at 30° C. for changes in fluorescence using a flurorescence plate reader (ex 544/em 590) (FIGS. 6A, 9A and 12).

[3] = tested on: Hsp90 client proteins (EGFR and Akt1) in Mayo Clinic GBM PDX cell lines; assay: Cellular biomarker assays (EGFR, Akt1 ELISA) in Mayo Clinic GBM PDX cell lines; assay type: cell-based; details: 48 hours; three cell lines
[4] = tested on: Mayo Clinic patient derived GBM tumor cells; assay: Mayo Clinic patient derived GBM tumor cell proliferation; assay type: cell-based; details: 132 hours
Method: Short-term explant cultures from PDX models were seeded into 96-well Perfecta3D hanging drop plates to form a single spheroid in each well after 2 days. The spheroids were transferred to a round bottom 96 well plate by centrifugation and then incubated with graded concentrations of test compound (8 spheroids per compound concentration). Spheroid volumes were monitored every 6 hours over the course of 5 days using the IncuCyte system (Essen BioScience, MI, US) to provide a growth curve akin to a tumor regrowth assay.

For `COc1c(C)cnc(CN(CCc2ccccn2)c2cc(Cl)nc(N)n2)c1C` [Compound 1, 6-chloro-4-N-[(4-methoxy-3,5-dimethylpyridin-2yl)methyl]-4-N-[2-(pyridine-2-yl)ethyl]pyrimidine-2,4-amine], which Ki (human Hsp90) is on record?
The Ki was 0.0394 µM.

What about the Ki (TRAP1) of the same molecule?
The Ki was 0.0504 µM.

And the IC50 (U251MG cells [1])?
Its IC50 is 1.72 µM.

What about the “Decrease of specific TMRE fluorescence vs untreated” value (U251MG cells [2]; 5 uM) of the same molecule?
The value was 42%.

What about the “Decrease of specific TMRE fluorescence vs untreated” value (U251MG cells [2]; 50 uM) of the same molecule?
The value was 73%.

For `COc1c(C)cnc(CN(CC2(c3ccc(F)cc3)CCOCC2)c2cc(Cl)nc(N)n2)c1C` [Compound A, 6-chloro-4-N-{[4-(4-fluorophenyl)oxan-4-yl]methyl}-4-N-[(4-methoxy-3,5-dimethylpyridin-2-yl)methyl]pyrimidine-2,4-diamine], which IC50 (human Hsp90; read-out: Biochemical efficacy HSP90 IC50) is on record?
The IC50 was 0.044 µM.

What about the Ki (human Hsp90) of the same molecule?
The Ki was 0.011 µM.

What about the Ki (TRAP1) of the same molecule?
The Ki was 0.039 µM.

And the IC50 (TRAP1; read-out: Biochemical efficacy TRAP1 IC50)?
The IC50 was 0.312 µM.

What about the “Effect on TMRE fluorescence of U251MG cells” value (U251MG cells [2]; 2 hour or 4 hr) of the same molecule?
The value was “dose-dependent decrease”.

What about the “Effect on EGFR and Akt1 levels, GBM PDX cell lines” value [3] of the same molecule?
The value was “suppression of Hsp90 client proteins”.

What about the “Effect on patient derived GBM tumor cell proliferation” value [4] of the same molecule?
The value was “inhibit”.

— US10189824B2, “Pyrimidine-diamine dual HSP90/TRAP1 inhibitors” (CalAsia Pharmaceuticals, Inc., priority 2014, dated 2019)
